Experiments:
[1] = test system: P. aeruginosa biofilms; settings: combination with ultrasound below 70 kHz; Qian et al. 1997; cited from earlier work
[2] = own microbiological tests
[3] = test system: Pseudomonas aeruginosa; settings: Pseudomonas aeruginosa versus Staphylococcus aureus; from EP 0 700 249 B1; cited from earlier work
[4] = use in wounds, albumin present; from EP 0 700 249 B1; cited from earlier work

Substance	increase in effect versus antibiotic alone [1] [%]	loss of action by the factor (effect of albumin) [2]	activity lower by a factor, in comparison with Staphylococcus aureus [3]	loss of action caused by albumin (in wounds) [4]
gentamicin	> 250	–	–	–
polyhexamethylene biguanide [polyhexanide]	–	about 10	~10	considerable loss of action

Reference: patent US20100291041A1, “BACTERIOPHAGE PREPARATION AND USE” (INNOVATIONS-TRANSFER UPHOFF GMBH & CO. KG, priority 2008, published 2010)
